Assay results taken from paper PMC8213057, “Targeting ALK2: An Open Science Approach to Developing Therapeutics for the Treatment of Diffuse Intrinsic Pontine Glioma” (Journal of Medicinal Chemistry, 2020).
Several values for one entry are separate records, joined by “and”; a condition that tells them apart may be missing. Identical values can stand only once.

Columns and labels:
BRAF = target: T1, BRAF (Homo sapiens, UniProt P15056); test: 375-member kinase panel; format: biochemical; settings: Run 1, Run 2; for % enzyme activity: 1 μM; for remaining activity at 1 µM: read-out: % enzyme activity, 1 μM
T1 construct: purchased Reaction Biology Corporation
T1 sequence (P15056 whole entry): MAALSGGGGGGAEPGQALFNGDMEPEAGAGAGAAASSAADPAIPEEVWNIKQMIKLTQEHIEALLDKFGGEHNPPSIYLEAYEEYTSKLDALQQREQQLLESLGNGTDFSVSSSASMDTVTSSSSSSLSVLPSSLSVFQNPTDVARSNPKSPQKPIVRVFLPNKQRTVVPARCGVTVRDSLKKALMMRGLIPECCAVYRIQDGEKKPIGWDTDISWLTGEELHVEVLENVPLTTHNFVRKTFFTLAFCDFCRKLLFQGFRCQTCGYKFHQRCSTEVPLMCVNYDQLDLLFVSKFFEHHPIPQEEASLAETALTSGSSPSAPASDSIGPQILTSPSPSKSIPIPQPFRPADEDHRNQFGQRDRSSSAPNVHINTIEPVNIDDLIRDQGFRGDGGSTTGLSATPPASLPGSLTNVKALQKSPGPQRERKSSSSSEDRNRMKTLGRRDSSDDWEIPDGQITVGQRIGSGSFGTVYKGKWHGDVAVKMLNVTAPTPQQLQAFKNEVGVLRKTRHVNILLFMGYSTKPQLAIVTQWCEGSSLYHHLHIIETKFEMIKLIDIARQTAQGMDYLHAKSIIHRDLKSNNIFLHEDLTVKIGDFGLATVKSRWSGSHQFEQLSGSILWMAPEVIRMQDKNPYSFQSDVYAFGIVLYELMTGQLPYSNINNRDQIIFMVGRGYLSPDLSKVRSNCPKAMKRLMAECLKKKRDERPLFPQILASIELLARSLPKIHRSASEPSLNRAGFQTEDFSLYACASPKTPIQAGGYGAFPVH

ERBB4/HER4 = ERBB4/HER4 (Homo sapiens, UniProt Q15303); settings: 1 μM; Run 1, Run 2
Chain of ERBB4/HER4 (Q15303 26-1308): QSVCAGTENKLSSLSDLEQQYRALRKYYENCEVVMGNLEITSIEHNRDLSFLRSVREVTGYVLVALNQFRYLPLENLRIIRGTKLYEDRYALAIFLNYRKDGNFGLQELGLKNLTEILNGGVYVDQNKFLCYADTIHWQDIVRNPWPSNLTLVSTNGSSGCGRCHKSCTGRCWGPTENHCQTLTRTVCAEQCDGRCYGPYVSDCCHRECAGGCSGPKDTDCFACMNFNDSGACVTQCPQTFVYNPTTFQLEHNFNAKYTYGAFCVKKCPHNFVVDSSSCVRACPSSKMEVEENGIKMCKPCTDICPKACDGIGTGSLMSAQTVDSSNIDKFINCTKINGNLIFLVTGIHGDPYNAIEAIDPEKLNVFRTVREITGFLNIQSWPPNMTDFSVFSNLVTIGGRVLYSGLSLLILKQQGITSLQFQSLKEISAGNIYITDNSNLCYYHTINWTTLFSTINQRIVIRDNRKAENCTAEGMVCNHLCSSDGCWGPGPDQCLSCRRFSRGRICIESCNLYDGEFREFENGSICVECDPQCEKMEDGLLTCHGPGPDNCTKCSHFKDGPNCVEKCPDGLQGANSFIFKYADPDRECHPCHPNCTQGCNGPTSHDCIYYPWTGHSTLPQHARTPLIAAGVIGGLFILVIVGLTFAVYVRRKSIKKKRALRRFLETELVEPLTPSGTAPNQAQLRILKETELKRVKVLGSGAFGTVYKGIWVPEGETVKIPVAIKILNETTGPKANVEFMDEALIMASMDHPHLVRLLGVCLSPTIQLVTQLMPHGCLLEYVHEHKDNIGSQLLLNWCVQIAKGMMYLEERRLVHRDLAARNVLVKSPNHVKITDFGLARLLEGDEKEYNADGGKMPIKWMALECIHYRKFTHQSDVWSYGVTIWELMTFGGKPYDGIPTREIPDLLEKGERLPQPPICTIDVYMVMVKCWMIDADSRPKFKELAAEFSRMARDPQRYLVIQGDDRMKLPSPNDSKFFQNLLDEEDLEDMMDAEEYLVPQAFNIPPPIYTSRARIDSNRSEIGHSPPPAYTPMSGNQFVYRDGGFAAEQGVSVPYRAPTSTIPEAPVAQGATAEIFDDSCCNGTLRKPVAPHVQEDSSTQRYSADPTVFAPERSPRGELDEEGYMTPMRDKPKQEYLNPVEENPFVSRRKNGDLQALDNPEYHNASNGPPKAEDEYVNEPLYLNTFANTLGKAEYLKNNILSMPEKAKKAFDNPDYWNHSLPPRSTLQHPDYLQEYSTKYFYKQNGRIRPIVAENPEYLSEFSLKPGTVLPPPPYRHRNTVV

LYN = LYN (Homo sapiens, UniProt P07948); settings: 1 μM; Run 1, Run 2
Chain of LYN (P07948 whole entry): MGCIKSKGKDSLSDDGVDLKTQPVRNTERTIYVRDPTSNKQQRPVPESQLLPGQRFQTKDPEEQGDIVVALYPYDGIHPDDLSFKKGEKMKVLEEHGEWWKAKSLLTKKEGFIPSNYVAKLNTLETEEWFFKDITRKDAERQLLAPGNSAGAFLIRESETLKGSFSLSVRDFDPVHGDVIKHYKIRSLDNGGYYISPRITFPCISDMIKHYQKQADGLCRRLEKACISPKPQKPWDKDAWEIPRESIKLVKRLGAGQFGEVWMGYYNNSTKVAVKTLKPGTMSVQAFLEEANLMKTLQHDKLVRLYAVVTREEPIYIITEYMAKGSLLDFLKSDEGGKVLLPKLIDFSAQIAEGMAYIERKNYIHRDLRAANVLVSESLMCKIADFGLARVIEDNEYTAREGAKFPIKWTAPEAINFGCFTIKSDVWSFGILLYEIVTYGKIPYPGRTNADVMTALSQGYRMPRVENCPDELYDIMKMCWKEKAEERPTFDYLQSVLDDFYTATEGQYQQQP

NEK2 = target: T2, NEK2 (Homo sapiens, UniProt P51955); settings: 1 μM; Run 1, Run 2
T2 sequence (P51955 1-445): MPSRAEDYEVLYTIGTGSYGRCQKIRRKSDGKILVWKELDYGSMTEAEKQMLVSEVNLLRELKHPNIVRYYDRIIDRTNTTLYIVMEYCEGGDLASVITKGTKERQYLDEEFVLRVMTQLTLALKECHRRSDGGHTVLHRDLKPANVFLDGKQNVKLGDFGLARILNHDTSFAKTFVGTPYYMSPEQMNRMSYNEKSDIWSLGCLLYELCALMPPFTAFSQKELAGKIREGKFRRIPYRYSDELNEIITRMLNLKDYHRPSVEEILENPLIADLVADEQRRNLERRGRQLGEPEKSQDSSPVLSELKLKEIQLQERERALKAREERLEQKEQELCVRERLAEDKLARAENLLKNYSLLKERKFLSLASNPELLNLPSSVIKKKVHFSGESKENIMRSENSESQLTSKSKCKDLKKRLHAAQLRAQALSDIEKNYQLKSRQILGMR

NEK3 = target: T3, NEK3 (Homo sapiens, UniProt P51956); settings: 1 μM; Run 1, Run 2
T3 sequence (P51956 1-506): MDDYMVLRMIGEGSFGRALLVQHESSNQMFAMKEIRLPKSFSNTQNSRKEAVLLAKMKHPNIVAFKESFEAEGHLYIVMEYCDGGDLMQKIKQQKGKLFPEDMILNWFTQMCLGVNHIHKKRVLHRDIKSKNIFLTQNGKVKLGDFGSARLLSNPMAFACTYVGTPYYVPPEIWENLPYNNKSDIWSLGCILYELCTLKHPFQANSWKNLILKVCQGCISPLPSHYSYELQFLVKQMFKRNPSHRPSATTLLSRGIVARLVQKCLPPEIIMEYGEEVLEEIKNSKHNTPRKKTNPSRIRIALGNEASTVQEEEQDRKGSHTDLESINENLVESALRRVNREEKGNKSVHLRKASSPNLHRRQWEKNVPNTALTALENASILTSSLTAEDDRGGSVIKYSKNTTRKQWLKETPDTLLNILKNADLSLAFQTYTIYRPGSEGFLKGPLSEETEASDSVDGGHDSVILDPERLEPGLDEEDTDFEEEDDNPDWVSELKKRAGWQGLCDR

PIM1 = PIM1 (Homo sapiens, UniProt P11309); settings: 1 μM; Run 1, Run 2
Chain of PIM1 (P11309 whole entry): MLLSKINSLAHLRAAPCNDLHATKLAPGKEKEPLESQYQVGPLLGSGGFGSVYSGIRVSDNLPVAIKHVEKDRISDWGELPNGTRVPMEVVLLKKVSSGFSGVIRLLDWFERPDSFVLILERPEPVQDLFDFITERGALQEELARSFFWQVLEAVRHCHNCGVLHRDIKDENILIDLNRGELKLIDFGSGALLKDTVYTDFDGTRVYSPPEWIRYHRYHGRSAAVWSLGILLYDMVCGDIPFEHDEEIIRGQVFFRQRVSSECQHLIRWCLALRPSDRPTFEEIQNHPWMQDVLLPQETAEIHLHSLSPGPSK

WNK1 = WNK1 (Homo sapiens, UniProt Q9H4A3); settings: 1 μM; Run 1, Run 2
CDK16/cyclin Y (PCTAIRE) = CDK16/cyclin Y (PCTAIRE) (Homo sapiens, UniProt Q00536); test: biochemical; settings: read-out: % enzyme activity, 1 μM; Run 1, Run 2
Chain of CDK16/cyclin Y (PCTAIRE) (Q00536 whole entry): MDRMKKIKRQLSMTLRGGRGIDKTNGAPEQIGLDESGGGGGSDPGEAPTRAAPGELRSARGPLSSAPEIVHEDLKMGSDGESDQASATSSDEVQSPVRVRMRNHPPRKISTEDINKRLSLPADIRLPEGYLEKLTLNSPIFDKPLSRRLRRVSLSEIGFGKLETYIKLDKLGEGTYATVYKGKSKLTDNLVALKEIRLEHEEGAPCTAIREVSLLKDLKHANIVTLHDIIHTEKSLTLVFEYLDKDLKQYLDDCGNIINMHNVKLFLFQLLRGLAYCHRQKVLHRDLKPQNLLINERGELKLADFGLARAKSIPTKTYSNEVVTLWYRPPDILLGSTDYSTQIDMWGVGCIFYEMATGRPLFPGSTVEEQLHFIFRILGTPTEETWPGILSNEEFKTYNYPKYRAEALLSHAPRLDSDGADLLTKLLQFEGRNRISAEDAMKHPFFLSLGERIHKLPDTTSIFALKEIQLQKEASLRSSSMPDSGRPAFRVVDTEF
Chain of CDK16/cyclin Y (PCTAIRE) (Q8ND76 whole entry partner): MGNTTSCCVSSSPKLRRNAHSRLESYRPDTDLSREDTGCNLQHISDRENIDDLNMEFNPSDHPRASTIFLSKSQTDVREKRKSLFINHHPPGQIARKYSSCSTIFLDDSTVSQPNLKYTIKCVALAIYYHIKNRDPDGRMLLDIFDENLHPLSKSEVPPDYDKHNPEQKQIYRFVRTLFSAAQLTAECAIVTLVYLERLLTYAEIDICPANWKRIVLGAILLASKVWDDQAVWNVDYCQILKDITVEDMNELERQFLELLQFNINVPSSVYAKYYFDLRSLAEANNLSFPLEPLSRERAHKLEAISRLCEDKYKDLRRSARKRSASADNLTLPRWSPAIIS

MARK2/PAR-1Ba = MARK2/PAR-1Ba (Homo sapiens, UniProt Q7KZI7); test: biochemical; settings: read-out: % enzyme activity, 1 μM; Run 1, Run 2
Chain of MARK2/PAR-1Ba (Q7KZI7 whole entry): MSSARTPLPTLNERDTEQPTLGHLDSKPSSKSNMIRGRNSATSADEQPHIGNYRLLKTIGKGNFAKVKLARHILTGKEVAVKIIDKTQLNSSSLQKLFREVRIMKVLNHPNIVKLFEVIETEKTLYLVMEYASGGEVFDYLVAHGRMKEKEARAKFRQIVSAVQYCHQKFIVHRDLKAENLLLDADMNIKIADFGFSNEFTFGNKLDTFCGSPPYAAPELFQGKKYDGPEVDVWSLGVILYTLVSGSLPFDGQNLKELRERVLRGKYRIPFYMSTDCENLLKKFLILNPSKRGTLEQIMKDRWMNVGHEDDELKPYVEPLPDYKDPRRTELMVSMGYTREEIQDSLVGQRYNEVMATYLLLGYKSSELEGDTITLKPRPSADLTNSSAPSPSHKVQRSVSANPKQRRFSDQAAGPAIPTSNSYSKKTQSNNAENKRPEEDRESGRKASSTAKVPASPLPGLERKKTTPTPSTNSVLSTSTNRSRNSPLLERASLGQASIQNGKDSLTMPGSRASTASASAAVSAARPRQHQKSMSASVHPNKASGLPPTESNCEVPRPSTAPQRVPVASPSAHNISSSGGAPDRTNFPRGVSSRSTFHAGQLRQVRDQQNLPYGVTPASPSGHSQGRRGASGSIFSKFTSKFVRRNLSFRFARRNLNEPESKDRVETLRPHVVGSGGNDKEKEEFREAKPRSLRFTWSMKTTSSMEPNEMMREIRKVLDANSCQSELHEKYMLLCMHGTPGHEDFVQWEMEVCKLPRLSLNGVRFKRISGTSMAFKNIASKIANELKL

PBK/TOPK = target: T4, PBK/TOPK (Homo sapiens, UniProt Q96KB5); test: biochemical; settings: read-out: % enzyme activity, 1 μM; Run 1, Run 2
T4 sequence (Q96KB5 1-322): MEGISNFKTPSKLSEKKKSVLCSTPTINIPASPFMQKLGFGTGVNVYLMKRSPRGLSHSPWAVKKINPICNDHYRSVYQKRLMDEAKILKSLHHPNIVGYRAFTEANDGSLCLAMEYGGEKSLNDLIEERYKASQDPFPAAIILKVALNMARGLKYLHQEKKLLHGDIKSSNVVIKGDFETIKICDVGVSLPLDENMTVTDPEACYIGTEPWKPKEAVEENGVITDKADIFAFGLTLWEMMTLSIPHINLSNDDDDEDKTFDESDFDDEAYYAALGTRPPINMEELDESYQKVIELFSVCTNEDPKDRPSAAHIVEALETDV

PEAK1 = PEAK1 (Homo sapiens, UniProt Q9H792); test: biochemical; settings: read-out: % enzyme activity, 1 μM; Run 1, Run 2
TSSK3/STK22C = target: T5, TSSK3/STK22C (Homo sapiens, UniProt Q96PN8); test: biochemical; settings: read-out: % enzyme activity, 1 μM; Run 1, Run 2
T5 sequence (Q96PN8 1-268): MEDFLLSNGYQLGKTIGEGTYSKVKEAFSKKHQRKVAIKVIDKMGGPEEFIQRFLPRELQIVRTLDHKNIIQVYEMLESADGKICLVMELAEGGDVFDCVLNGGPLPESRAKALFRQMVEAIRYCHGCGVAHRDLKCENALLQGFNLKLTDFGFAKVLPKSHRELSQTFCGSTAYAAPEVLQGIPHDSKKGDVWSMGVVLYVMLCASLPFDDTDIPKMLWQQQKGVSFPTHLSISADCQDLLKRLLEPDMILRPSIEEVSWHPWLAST

| Compound | % enzyme activity at 1 μM (DDR1) | % enzyme activity (BRAF) [%] | remaining activity at 1 µM (BRAF) [%] | % enzyme activity (ERBB4/HER4) [%] | % enzyme activity (LYN) [%] | % enzyme activity (NEK2) [%] | % enzyme activity (NEK3) [%] | % enzyme activity (PIM1) [%] | % enzyme activity (WNK1) [%] | remaining activity at 1 µM (CDK16/cyclin Y (PCTAIRE)) [%] | remaining activity at 1 µM (MARK2/PAR-1Ba) [%] | remaining activity at 1 µM (PBK/TOPK) [%] | remaining activity at 1 µM (PEAK1) [%] | remaining activity at 1 µM (TSSK3/STK22C) [%] |
| --- | --- | --- | --- | --- | --- | --- | --- | --- | --- | --- | --- | --- | --- | --- |
| COc1cc(-c2cncc(-c3ccc(N4CCN(C)CC4)cc3)c2C)cc(F)c1C(N)=O [Compound 26a, 2-Fluoro-6-methoxy-4-(4-methyl-5-(4-(4-methylpiperazin-1-yl)phenyl)pyridin-3-yl)benzamide] | 32.1% and 31.2% | 28.77 | 28.8 | 99.40 | 79.23 | 90.39 | 86.84 | 97.92 | 107.33 | 92.8 | 92.8 | 91.8 | 99.1 | 96.6 |
| COc1cc(-c2cncc(-c3ccc(N4C[C@@H](C)N(C)[C@@H](C)C4)cc3)c2C)cc(F)c1C(N)=O [Compound 26c, 2-Fluoro-6-methoxy-4-(4-methyl-5-(4-((3R,5S)-3,4,5-trimethylpiperazin-1-yl)phenyl)pyridin-3-yl)benzamide] | 57.2% and 55.5% | 40.52 | 41.1 | 93.88 | 88.67 | 96.23 | 94.54 | 92.25 | 102.29 | 91.6 | 104 | 103 | 96.6 | 96.6 |
